Values of other authors as cited in patent publication US20100210573A1, “COMPOUND AND COMPOSITIONS FOR TREATMENT OF DISEASE” (Citrox Limited, priority 2008, published 2010).

Legend:
[1] = test system: Leishmania donovani promastigotes and amastigotes; conditions: in vitro; Mittra et al., Molecular Medicine 6, 2000
[2] = test system: Trypanosoma brucei gambiense; conditions: cell cultures; Antimicrobial Agents and Chemother. 48, 2004

Structure (SMILES)	growth of Leishmania donovani promastigotes and amastigotes [1]	apoptosis of Trypanosoma brucei gambiense [2]
O=c1cc(-c2ccc(O)c(O)c2)oc2cc(O)cc(O)c12 [Luteolin]	inhibit the growth	–
O=c1c(O)c(-c2ccc(O)c(O)c2)oc2cc(O)cc(O)c12 [Quercetin]	inhibit the growth	induce apoptosis
